Reference: the supplement of paper PMC10307832

How the values were obtained:
Experiment in all cases: relative viability (nuclei count vs DMSO), 5 days (fraction); higher = more cells survive
[1] = compound: CC[C@H](Nc1ncnc2[nH]cnc12)c1nc2cccc(F)c2c(=O)n1-c1ccccc1 [Idelalisib]
Method in brief: (§1)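 Hoechst staining, done together with fixation and permeabilisation, marked nuclei for 4× imaging and MetaXpress counting. This followed 5 days without medium change after lung cancer cell lines, kept overnight at 37 °C in 1536-well plates, were pinned with five library-drug doses (not always all listed) spaced by √10 on vehicle-anchored plates. Viability is the ratio of treated-well to vehicle-well nuclei, expressed as a median across plates. Plates passed only at control CV below 25% with at least one doubling.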

[2] = compound: Nc1nc2[nH]cc(CCc3ccc(C(=O)N[C@@H](CCC(=O)O)C(=O)O)cc3)c2c(=O)[nH]1 [Pemetrexed]
Method in brief: as §1

[3] = compound: Nc1nc2[nH]cc(CCc3ccc(C(=O)N[C@@H](CCC(=O)O)C(=O)O)cc3)c2c(=O)[nH]1 [Pemetrexed] + Nc1ncn([C@H]2C[C@H](O)[C@@H](CO)O2)c(=O)n1 [Decitabine] (partner 2 µM)
Method in brief: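 Five library-drug doses in √10 steps were combined with a fixed anchor-drug dose, or a single drug was given alone, by pin tool to lung cancer cell lines in 1536-well plates the day after seeding. Nuclei were stained and counted after 5 days. Relative viability is the nuclei count in treated wells over that in vehicle wells, taken as the median of duplicate plates.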

UMC-11
relative viability ([1]; 0.04 µM): 1.04 | relative viability ([1]; 0.1265 µM): 1.05 | relative viability ([1]; 0.4 µM): 0.921 | relative viability ([1]; 1.265 µM): 1.01 | relative viability ([1]; 4 µM): 0.984 | relative viability ([2]; 0.002 µM): 0.996 | relative viability ([2]; 0.006325 µM): 0.955 | relative viability ([2]; 0.02 µM): 1.04 | relative viability ([2]; 0.06325 µM): 1.03 | relative viability ([2]; 0.2 µM): 0.846 | relative viability ([2]; 0.2 µM, anchor plate): 0.805 | relative viability ([3]; first compound 0.002 µM): 0.849 | relative viability ([3]; first compound 0.006325 µM): 0.63 | relative viability ([3]; first compound 0.02 µM): 0.595 | relative viability ([3]; first compound 0.06325 µM): 0.58 | relative viability ([3]; first compound 0.2 µM): 0.7
